# Assay results from patent US10266535B2, “Inhibitor of FLT3 kinase and use thereof” (HEFEI INSTITUTES OF PHYSICAL SCIENCE, CHINESE ACADEMY OF …, priority 2015, dated 2019).
# pIC50: −log10 of the molar value. Read-outs that look alike come from different tables or passages of the source.
# Assays:
# [1] = system: MV4-11 (expressing FLT3/ITD mutant gene); assay: Cell proliferation, Cell Titer-Glo, MV4-11; type: cell-based; conditions: Homo sapiens, MV4-11, 72 h, read-out: MV4-11 IC50 [μM]
# How it was run: (§1)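 Read-out: luminescence from ATP in live cells (CellTiter-Glo), taken as viable cell number. Cell lines were built in-house.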
# [2] = system: MOLM-14 (expressing FLT3/ITD mutant gene and wild-type FLT3 gene); assay: Cell proliferation, Cell Titer-Glo, MOLM-14; type: cell-based; conditions: Homo sapiens, MOLM-14, 72 h, read-out: MOLM-14 IC50 [μM]
# How it was run: as §1
# [3] = system: TEL-BaF3-FLT3/ITD (stably expressing FLT3/ITD mutant activated kinase); assay: Cell proliferation, Cell Titer-Glo, TEL-BaF3-FLT3/ITD; type: cell-based, mouse; conditions: Mus musculus, 72 h; for IC50: read-out: TEL-BaF3-FLT3/ITD IC50 [μM], incubated for 72 hours
# How it was run: (§2)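 Proliferation of the engineered BaF3 lines was followed by measuring ATP in living cells with a CellTiter-Glo chemiluminescence viability kit, and the luminescent signal served as the count of viable cells.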
# [4] = system: TEL-FLT3-BaF3 (stably expressing FLT3 kinase); assay: Cell proliferation, Cell Titer-Glo, TEL-FLT3-BaF3; type: cell-based; conditions: Mus musculus, 72 h, read-out: TEL-FLT3-BaF3 IC50 [μM]
# Procedure: (§3) The above cell lines were constructed by our laboratory.
# (§4) The number of viable cells was determined by quantification of ATP in living cells using the Cell Titer-Glo® (Promega, USA) chemiluminescence cell viability assay kit.
# [5] = system: TEL-BaF3-FLT3-D835Y (stably expressing FLT3 D835Y mutant activated kinase); assay: Cell proliferation, Cell Titer-Glo, TEL-BaF3-FLT3-D835Y; type: cell-based; conditions: Mus musculus, 72 h, read-out: TEL-BaF3-FLT3-D835Y IC50 [μM]
# How it was run: as §2
# [6] = system: BaF3-FLT3-ITD-D835Y (stably expressing FLT3/ITD D835Y mutant activated kinase); assay: Cell proliferation, Cell Titer-Glo, BaF3-FLT3-ITD-D835Y; type: cell-based; conditions: Mus musculus, 72 h, read-out: BaF3-FLT3-ITD-D835Y IC50 [μM]
# Procedure: as §3, §4
# [7] = system: BaF3-FLT3-ITD-F691L (stably expressing FLT3/ITD F691L mutant activated kinase); assay: Cell proliferation, Cell Titer-Glo, BaF3-FLT3-ITD-F691L; type: cell-based; conditions: Mus musculus, 72 h, read-out: BaF3-FLT3-ITD-F691L IC50 [μM]
# How it was run: as §2
# [8] = system: pro-B cell BaF3; assay: Cell proliferation, Cell Titer-Glo, BaF3; type: cell-based; conditions: Mus musculus, incubated for 72 hours
# How it was run: as §1
# [9] = system: U937 (expressing wild-type FLT3 gene); assay: Cell proliferation, Cell Titer-Glo, U937; type: cell-based, human; conditions: Homo sapiens, U-937, 72 h, read-out: U937 IC50 [μM], incubated for 72 hours
# How it was run: as §1
# [10] = system: TEL-BaF3-BMX (stably expressing BMX kinase); assay: Cell proliferation, Cell Titer-Glo, TEL-BaF3-BMX; type: cell-based; conditions: Mus musculus; incubated for 72 hours
# How it was run: as §2
# [11] = system: TEL-cKIT-BaF3 (stably expressing cKIT kinase); assay: Cell proliferation, Cell Titer-Glo, TEL-cKIT-BaF3; type: cell-based; conditions: Mus musculus; incubated for 72 hours
# How it was run: as §2
# [12] = system: TPR-MET-BaF3 (stably expressing MET kinase); assay: Cell proliferation, Cell Titer-Glo, TPR-MET-BaF3; type: cell-based; conditions: Mus musculus; incubated for 72 hours
# How it was run: as §2
# [13] = system: TEL-BaF3-BLK (stably expressing BLK kinase); assay: Cell proliferation, Cell Titer-Glo, TEL-BaF3-BLK; type: cell-based; conditions: Mus musculus; incubated for 72 hours
# How it was run: as §2
# [14] = system: Signaling pathways of FLT3 in MV4-11 and MOLM-14 cell lines; assay: Effects on upstream and downstream signaling pathways of FLT3 in cells; type: cell-based, human; conditions: for efficacy compared with Control Compound AC220: AC220 at 0.1 μM; for C-Myc (degradation; for AC220 phosphorylation) / phosphorylation of STAT5 / phosphorylation of protein kinase FLT3: treated for 4 hours
# [15] = system: MOLM-13 cell lines; assay: Cell apoptosis, Western Blot of PARP and Caspase 3 cleavage, MOLM-13; type: cell-based, human; conditions: MOLM-13, 0.1 μM
# From the text: (§5) Western Blot was used to detect the effects of different concentrations of drugs on protein cleavage of DNA repair enzyme, poly ADP-ribose polymerase PARP and cysteinyl aspartate specific proteinase Caspase 3 at different time intervals (FIG. 3).
# [16] = system: MV4-11 cell lines; assay: Cell apoptosis, Western Blot of PARP and Caspase 3 cleavage, MV4-11; type: cell-based, human; conditions: after 24 hours
# From the text: as §5
# [17] = system: MV4-11 cell lines carrying FLT3/ITD mutant gene; assay: Cell cycle distribution by flow cytometry; type: cell-based, human; conditions: MV4-11, 0.1 μM, 24 hours
# [18] = system: MOLM-13 (expressing FLT3/ITD mutant gene and wild-type FLT3 gene); assay: Cell proliferation, Cell Titer-Glo, MOLM-13; type: cell-based; conditions: Homo sapiens, MOLM-13, 72 h, read-out: MOLM-13 IC50 [μM]
# How it was run: as §1
# [19] = biological target: BTK protein kinase (Homo sapiens (Human), UniProt Q06187); assay: In vitro inhibition activity (enzymatic activity), ADP-Glo, BTK; type: biochemical; conditions: ATP 10 μM
# [20] = system: MOLM-14 cells; assay: Nude mouse subcutaneous tumor model with MOLM-14 cells; type: in vivo; conditions: oral gavage; for tumor growth of the mice: 12.5-50 mg/kg
# Procedure: More than 30 mice (5-week-old) (Balb/c-nu female mice, purchased from Shanghai Snake Experimental Animal Co., Ltd.) were inoculated subcutaneously with MOLM-14 cells in 1×10^7 cells/mouse, the changes in body weight and tumor volume were recorded daily (tumor volume=Tumor length×tumor width^2/2).
# [21] = system: BaF3-tel-cKit-N882K (stably expressing cKIT N882K mutant activated kinase); assay: Cell proliferation, Cell Titer-Glo, BaF3-tel-cKit-N882K; type: cell-based; conditions: Mus musculus; incubated for 72 hours
# Procedure: as §3, §4
# [22] = system: BaF3-tel-cKit-D816V (stably expressing cKIT D816V mutant activated kinase); assay: Cell proliferation, Cell Titer-Glo, BaF3-tel-cKit-D816V; type: cell-based; conditions: Mus musculus; incubated for 72 hours
# Procedure: as §3, §4
# [23] = system: BaF3-tel-cKit-T670I (stably expressing cKIT T670I mutant activated kinase); assay: Cell proliferation, Cell Titer-Glo, BaF3-tel-cKit-T670I; type: cell-based; conditions: Mus musculus; incubated for 72 hours
# Procedure: as §3, §4
# [24] = system: TEL-BaF3-EGFR (stably expressing EGFR kinase); assay: Cell proliferation, Cell Titer-Glo, TEL-BaF3-EGFR; type: cell-based; conditions: Mus musculus; incubated for 72 hours
# How it was run: as §2
# [25] = system: TEL-JAK1-BaF3 (stably expressing JAK1 kinase); assay: Cell proliferation, Cell Titer-Glo, TEL-JAK1-BaF3; type: cell-based; conditions: Mus musculus; incubated for 72 hours
# How it was run: as §2
# BTK protein kinase, sequence (Q06187 whole entry): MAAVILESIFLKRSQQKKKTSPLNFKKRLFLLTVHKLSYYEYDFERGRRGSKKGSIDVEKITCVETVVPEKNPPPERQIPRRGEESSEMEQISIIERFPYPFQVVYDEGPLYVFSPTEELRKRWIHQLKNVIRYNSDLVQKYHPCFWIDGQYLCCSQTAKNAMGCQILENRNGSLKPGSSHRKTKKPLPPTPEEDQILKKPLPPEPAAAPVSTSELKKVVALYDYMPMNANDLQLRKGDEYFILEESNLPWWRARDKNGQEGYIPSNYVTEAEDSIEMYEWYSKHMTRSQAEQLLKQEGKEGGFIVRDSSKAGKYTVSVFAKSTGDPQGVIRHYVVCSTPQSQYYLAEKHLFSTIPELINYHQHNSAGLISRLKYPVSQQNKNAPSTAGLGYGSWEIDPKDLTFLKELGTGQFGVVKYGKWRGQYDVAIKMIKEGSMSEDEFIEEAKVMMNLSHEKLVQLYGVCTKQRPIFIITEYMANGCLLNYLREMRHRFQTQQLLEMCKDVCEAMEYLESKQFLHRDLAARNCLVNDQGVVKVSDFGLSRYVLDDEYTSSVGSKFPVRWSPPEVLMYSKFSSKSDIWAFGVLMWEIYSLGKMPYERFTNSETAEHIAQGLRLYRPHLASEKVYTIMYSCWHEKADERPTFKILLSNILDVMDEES
Compound,IC50 [1],IC50 [2],IC50 [3],IC50 [4],IC50 [5],IC50 [6],IC50 [7],pIC50 [8],IC50 [9],pIC50 [10],pIC50 [11],pIC50 [12],pIC50 [13],efficacy compared with Control Compound AC220 [14],C-Myc (degradation; for AC220 phosphorylation) [14],phosphorylation of STAT5 [14],phosphorylation of protein kinase FLT3 [14],number of cells captured in G0-G1 phase [17],IC50 [18],pIC50 [19],other results
"CC(C)C[C@@H](N)C(=O)N[C@H]1CC[C@@H](n2nc(-c3ccc(Oc4ccccc4)cc3)c3c(N)ncnc32)CC1.Cl (stereo in doubt) [Compound 84, (R)-2-amino-N-(4-(4-amino-3-(4-phenoxyphenyl)-1H-pyrazolo[3,4-d]pyrimidin-1-yl)cis-1,4-cyclohexyl)-4-methylpentanamide hydrochloride]",0.01 µM,0.002 µM,< 0.0003 µM,0.013 µM,0.002 µM,0.28 µM,0.43 µM,6.12,3.3 µM,7.20,5.21,5.54,8.52,better efficacy,significant effects on the degradation,very strong inhibitory effects,strongly inhibited,89.92%,,,"cleavage of Caspase 3 ([15]; after 24 hours): very significant cleavage; cleavage of poly ADP-ribose polymerase PARP ([15]; after 24 hours): very significant cleavage; cleavage of Caspase 3 ([16]; MV 4-11, 0.03 μM): cleavage; cleavage of poly ADP-ribose polymerase PARP ([16]; MV 4-11, 0.03 μM): relatively significant cleavage"
"CC(C)C[C@@H](N)C(=O)NC1CCC(n2nc(-c3ccc(Oc4ccccc4)cc3)c3c(N)ncnc32)CC1.Cl (stereo partly drawn) [Compound 77, (R)-2-amino-N-(4-(4-amino-3-(4-phenoxyphenyl)-1H-pyrazolo[3,4-d]pyrimidin-1-yl)cyclohexyl)-4-methylpentanamide hydrochloride]",0.0016 µM,0.0084 µM,,0.0081 µM,0.021 µM,0.073 µM,0.067 µM,5.66,3.4 µM,7.28,,,8.59,better efficacy,significant effects on the degradation,very strong inhibitory effects,strongly inhibited,,0.0027 µM,6.89,"pIC50 ([3]; incubated for 72 hours, read-out: TEL-BaF3-FLT3/ITD IC50): > 9.52; tumor volume growth of the mice ([20]; 25 mg/kg/day): significantly slowed down; growth of the tumors of the mice ([20]; 50.0 mg/kg/day): almost no growth; tumor growth of the mice ([20]; 2 to 3 weeks): significantly inhibited"
"CN(C)CC(=O)N1CCC[C@@H](n2nc(-c3ccc(Oc4ccccc4)cc3)c3c(N)ncnc32)C1 [Compound 22, (R)-1-(3-(4-amino-(4-phenoxyphenyl)-1H-pyrazolo[3,4-d]pyrimidin-1-yl)piperidin-1-yl)-2-(dimethylamino)ethanone]",0.022 µM,0.042 µM,0.011 µM,,,0.17 µM,0.22 µM,5.31,9.7 µM,6.55,5.72,5.66,6.03,,significant effects on the degradation,very strong inhibitory effects,strongly inhibited,95.78%,0.021 µM,6.72,"pIC50 [21]: 5.92; pIC50 [22]: 6.00; pIC50 [23]: 5.44; pIC50 [24]: 5.74; pIC50 [25]: 5.42; cleavage of Caspase 3 ([15]; after 12 hours): very significant cleavage; cleavage of poly ADP-ribose polymerase PARP ([15]; after 12 hours): very significant cleavage; cleavage of Caspase 3 ([16]; MV 4-11, 0.1 μM): very significant cleavage; cleavage of poly ADP-ribose polymerase PARP ([16]; MV 4-11, 0.1 μM): significant cleavage; tumor growth of the mice ([20]; 2 to 3 weeks): significantly inhibited; tumor volume growth of the mice ([20]; dose not specified, 2 to 3 weeks): significantly slowed down"
